Measured values as given in patent US10597388B2, “Pyridazinone herbicides” (FMC CORPORATION, priority 2014, dated 2020).

How the values were obtained:
Type in all cases: in vivo
[1] = test system: wheat (winter wheat, Triticum aestivum); experiment: Test C greenhouse herbicide test, pre- and postemergence
How it was run: (§1)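 Two application timings: at sowing into a soil/sand blend, and on 2–18 cm seedlings in peat-vermiculite potting mix. A non-phytotoxic, surfactant-containing solvent carried the compounds. Plants were compared with controls and rated visually on 0–100 after 13–15 d.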

[2] = test system: galium (catchweed bedstraw, Galium aparine); experiment: as above
How it was run: as §1

corn (Zea mays) = experiment: as above
How it was run: as §1

[3] = test system: crabgrass, large (large crabgrass, Digitaria sanguinalis); experiment: as above
How it was run: as §1

[4] = test system: barnyardgrass (Echinochloa crus-galli); experiment: as above; settings: Postemergence
How it was run: as §1

[5] = test system: ragweed (common ragweed, Ambrosia elatior); experiment: as above
How it was run: as §1

[6] = test system: foxtail, giant (giant foxtail, Setaria faberii); experiment: as above
How it was run: as §1

[7] = test system: johnsongrass (Sorghum halepense); experiment: as above
How it was run: as §1

[8] = test system: blackgrass (Alopecurus myosuroides); experiment: as above
How it was run: as §1

soybean (Glycine max) = experiment: as above
How it was run: as §1

[9] = test system: waterhemp (common waterhemp, Amaranthus rudis); experiment: as above
How it was run: as §1

[10] = test system: oilseed rape (Brassica napus); experiment: as above
How it was run: as §1

[11] = test system: velvetleaf (Abutilon theophrasti); experiment: as above
How it was run: as §1

[12] = test system: morningglory (Ipomoea coccinea); experiment: as above
How it was run: as §1

[13] = test system: pigweed (Amaranthus retroflexus); experiment: as above
How it was run: as §1

kochia (Kochia scoparia) = experiment: Test C greenhouse herbicide test, postemergence
How it was run: (§2)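 Greenhouse postemergence spray on plants 2–18 cm tall; response judged visually after 13–15 d relative to untreated controls using a 0 (none) to 100 (full control) scale.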

[14] = test system: oat, wild (wild oat, Avena fatua); experiment: Test C greenhouse herbicide test, postemergence
How it was run: as §2

[15] = Postemergence, 31 g ai/ha, scale 0 to 100 (0 no effect, 100 complete control)
[16] = Postemergence, 62 g ai/ha, 0 to 100 scale (0 no effect, 100 complete control)
[17] = Postemergence, 250 g ai/ha, scale 0 to 100, 0 no effect, 100 complete control, 13 to 15 d
[18] = postemergence, 125 g ai/ha, scale 0 to 100, 0 no effect, 100 complete control

Cc1nn(C)c(=O)c(-c2cccc3ccc(C#N)cc23)c1O [Compound 127]
Plant response rating, Wheat [1, 15]: 0
Wheat plant response rating [1, 16]: 5
Plant response rating, Wheat [1, 17]: 30
Wheat plant response rating [1, 18]: 5
Plant response rating, Galium [2, 15]: 75
Galium plant response rating [2, 16]: 80
Plant response rating, Galium [2, 17]: 90
Galium plant response rating [2, 18]: 85
Plant response rating, Corn (corn (Zea mays); [15]): 0
Corn plant response rating (corn (Zea mays); [16]): 0
Plant response rating, Corn (corn (Zea mays); [17]): 10
Corn plant response rating (corn (Zea mays); [18]): 5
Plant response rating, Crabgrass, Large [3, 15]: 0
Crabgrass, Large plant response rating [3, 16]: 5
Plant response rating, Crabgrass, Large [3, 17]: 25
Crabgrass, Large plant response rating [3, 18]: 10
Plant response rating, Barnyardgrass ([4]; 31 g ai/ha, scale 0 to 100 (0 no effect, 100 complete control)): 10
Barnyardgrass plant response rating ([4]; 62 g ai/ha, 0 to 100 scale (0 no effect, 100 complete control)): 20
Plant response rating, Barnyardgrass ([4]; 125 g ai/ha, scale 0 to 100, 0 is no effect, 100 is complete control): 25
Plant response rating, Barnyardgrass ([4]; 250 g ai/ha, scale 0 to 100, 0 no effect, 100 complete control, 13 to 15 d): 25
Plant response rating, Ragweed [5, 15]: 10
Ragweed plant response rating [5, 16]: 55
Plant response rating, Ragweed [5, 17]: 90
Ragweed plant response rating [5, 18]: 60
Plant response rating, Foxtail, Giant [6, 15]: 5
Foxtail, Giant plant response rating [6, 16]: 5
Plant response rating, Foxtail, Giant [6, 17]: 40
Foxtail, Giant plant response rating [6, 18]: 25
Plant response rating, Johnsongrass [7, 15]: 5
Johnsongrass plant response rating [7, 16]: 5
Plant response rating, Johnsongrass [7, 17]: 15
Johnsongrass plant response rating [7, 18]: 10
Plant response rating, Blackgrass [8, 15]: 0
Blackgrass plant response rating [8, 16]: 5
Plant response rating, Blackgrass [8, 17]: 35
Blackgrass plant response rating [8, 18]: 5
Plant response rating, Soybean (soybean (Glycine max); [15]): 0
Soybean plant response rating (soybean (Glycine max); [16]): 10
Plant response rating, Soybean (soybean (Glycine max); [17]): 35
Soybean plant response rating (soybean (Glycine max); [18]): 30
Plant response rating, Waterhemp [9, 15]: 70
Waterhemp plant response rating [9, 16]: 85
Plant response rating, Waterhemp [9, 17]: 95
Waterhemp plant response rating [9, 18]: 85
Plant response rating, Oilseed Rape [10, 15]: 0
Oilseed Rape plant response rating [10, 16]: 0
Plant response rating, Oilseed Rape [10, 17]: 100
Oilseed Rape plant response rating [10, 18]: 25
Plant response rating, Velvetleaf [11, 15]: 20
Velvetleaf plant response rating [11, 16]: 30
Plant response rating, Velvetleaf [11, 17]: 55
Velvetleaf plant response rating [11, 18]: 25
Plant response rating, Morningglory [12, 15]: 65
Morningglory plant response rating [12, 16]: 75
Plant response rating, Morningglory [12, 17]: 98
Morningglory plant response rating [12, 18]: 85
Plant response rating, Pigweed [13, 15]: 70
Pigweed plant response rating [13, 16]: 85
Plant response rating, Pigweed [13, 17]: 95
Pigweed plant response rating [13, 18]: 90
Plant response rating, Kochia (kochia (Kochia scoparia); [15]): 40
Kochia plant response rating (kochia (Kochia scoparia); [16]): 85
Plant response rating, Kochia (kochia (Kochia scoparia); [17]): 90
Kochia plant response rating (kochia (Kochia scoparia); [18]): 95
Plant response rating, Oat, Wild [14, 15]: 10
Oat, Wild plant response rating [14, 16]: 20
Plant response rating, Oat, Wild [14, 17]: 60
Oat, Wild plant response rating [14, 18]: 55
